The text below walks through data of patent US20250041302A1, “PROLYL HYDROXYLASE DOMAIN INHIBITOR FOR TREATING HEMORRHAGIC OR BURN SHOCK” (THE GOVERNMENT OF THE UNITED STATES, AS REPRESENTED BY THE …, priority 2022, published 2025).

Assay [1] deals with rats (polytrauma with 40% hemorrhage). As to the kind of experiment: HOE140 on tissue wet/dry weight ratio after polytrauma with 40% hemorrhage and lactated Ringer's resuscitation (FIG. 12). In kind it is in vivo. The conditions noted are these: for wet/dry weight ratio, brain: HOE140 0.4 mg/kg i.v. bolus 45 min after trauma, tissues 1 hour after resuscitation, vehicle 4.735±0.024. As for the experimental part: FIG. 12. The effect of bradykinin receptor antagonist (HOE140) on tissue water content/vascular permeability in the brain, lung and skeletal muscle after polytrauma/hemorrhage and resuscitation of lactate Ringer's fluid (20% of Blood Volume). HOE140 or vehicle were given intravenously in rats (n=4/group) at 45 min after trauma (15 min prior to resuscitation of lactate Ringer's fluid). The tissues were harvested 2 hours after trauma. Values represent as means±SD. *:p<0.05 as compared with vehicle.
HOE140 (0.4 mg/kg) was administrated as a bolus intravenously at 45 min after trauma (15 min prior to Lactated Ringer's fluid resuscitation). At 1 hour after resuscitation, the rats were euthanized and the tissues were harvested for wet weight, and then transferred into the oven at 60° C. for 14 days to be weighed as dry weight. The wet/dry ratio represented the water content of the tissue.
Icatibant (HOE140), which is a selective competitive antagonist at the bradykinin type 2 (B2) receptor, is a synthetic decapeptide with a structure similar to bradykinin, but with 5 nonproteinogenic amino acids. It consists of ten amino acids in the following sequence: H-D-Arg-Arg-Pro-Hyp-Gly-Thi-Ser-D-Tic-Oic-Arg-OH. HOE140 (0.4 mg/kg in lactate Ringer's fluid) was administrated as a bolus intravenously at 45 min after trauma (15 min prior to lactated Ringer's fluid resuscitation (20% of Blood Volume)). At 1 hour after resuscitation, the rats were euthanized and the tissues were harvested for wet weight, and then transferred into the oven at 60° C. for 14 days to be weighed as dry weight. The wet/dry ratio represented the water content of the tissue.

Assay [2] concerns rats with polytrauma and hemorrhage. As to the kind of experiment: TXA in polytrauma/hemorrhage (FIG. 11). The format is in vivo. As to the method: FIG. 11. The effect of anti-fibrinolytic agent (tranexamic acid; TXA) on polytrauma/hemorrhage. Single dose of TXA (10 mg/kg) given prior to trauma. (FIG. 11A) Prothrombin time. Values represent as means±SEM. *:p<0.05, significant difference between TXA and Vehicle; #:p<0.05, significant difference as compared with baseline. (FIG. 11B) Lung wet/dry weight ratio. TXA was given just before trauma (BT, red), just after trauma (AT, green) and 45 min after the end of trauma (yellow). Values represent as means±SEM. *:p<0.05, significant difference as compared with vehicle. (FIG. 11C) Acute lung injury. TXA given 45 min after trauma (and 15 min prior to resuscitation). Levels of platelet and leukocytes (neutrophils and monocytes) infiltration, and C5a and neutrophil elastase in the lung as compared with FWB. *:p<0.05, significant difference between FWB and FWB/TXA; #:p<0.05, significant difference as compared with Non-R; $:p<0.05, significant difference as compared with Non-R, FWB and FWB/TXA. Values represent as means±SEM. Non-R: Non-Resuscitation; FWB: Fresh Whole Blood; TXA: Tranexamic Acid; AT: After Trauma; BT: Before Trauma.
Briefly, Sprague-Dawley rats (350-450 gram) were anesthetized with isoflurane/100% oxygen through a nosecone and allowed to breathe spontaneously. Cannulas were placed in the left femoral artery and vein for measurement of arterial blood pressure and to obtain vascular access (blood draw and resuscitation and drug administration) respectively. Polytrauma was induced by laparotomy, crush injury to the small intestines, the […], and the right leg skeletal muscle and by fracture of the right femur. In detail, a midline incision was made through the abdominal skin and underlying muscle layers. A 10-cm section of small intestines was isolated just anterior to the cecum and run gently through a clamp covered with silastic tubing with a 2-mm distance between the clamps to cause a gentle crush injury. The right and medial lobes of the liver will receive three crushes to each lobe using the same clamp. The intestines and liver were replaced, and the abdominal incision was closed with sutures in two layers. To fracture the […], a modification of a 3-point impact device was used by dropping six stainless-steel balls (65 g each) stacked together, from 36 inches through a guide tube (1 inch internal diameter) to impact on a rounded aluminum blade resting on the mid-right femur with the right leg resting on two aluminum stands, one under the hip and one under the knee. A large hemostat (5 in tongs) was used to clamp the muscle of the right leg 10 times. The crush injury was intended to cause microvascular damage, as opposed to cutting, chopping, or mincing of the tissue, which would have led to uncontrolled hemorrhage. The polytrauma was performed about 10 min followed immediately by hemorrhage. Blood volume was estimated as 6% of body weight±0.77. The rats were bled to lower mean arterial pressure to 40 mmHg within 5 min and maintained at 40 mmHg until 40% of estimated blood volume is removed. Hemorrhage is usually completed within 30 min. Hemorrhage was then discontinued, and blood pressure and heart rate will be allowed to freely compensate.
TXA was given just before trauma (BT, red), just after trauma (AT, green) and 45 min after the end of trauma (yellow). […] TXA was given 45 min after trauma (15 min prior to resuscitation).

Setting [3] is: TXA 15 min prior to FWB resuscitation at 60 min after trauma.
Setting [4] is: single dose TXA 10 mg/kg prior to trauma.

SMILES strings stand for the structures. “Also recorded” adds a separate entry of the source.

For `NC(N)=NCCC[C@@H](N)C(=O)N[C@@H](CCCN=C(N)N)C(=O)N1CCC[C@H]1C(=O)N1C[C@H](O)C[C@H]1C(=O)NCC(=O)N[C@@H](Cc1cccs1)C(=O)N[C@@H](CO)C(=O)N1Cc2ccccc2C[C@@H]1C(=O)N1[C@H](C(=O)N[C@@H](CCCN=C(N)N)C(=O)O)C[C@@H]2CCCC[C@@H]21` [Icatibant, H-D-Arg-Arg-Pro-Hyp-Gly-Thi-Ser-D-Tic-Oic-Arg-OH], the “tissue wet/dry weight ratio / tissue water content and vascular permeability” value in assay [1] (HOE140 0.4 mg/kg i.v.) is reported as “attenuated tissue wet/dry weight ratio”; in assay [1] (HOE140 0.4 mg/kg i.v., 0.4 mg/kg) it was “attenuated tissue wet/dry weight ratio; also recorded: reduced”. For the same compound, the “wet/dry weight ratio, brain” value is listed as 4.674±0.023 in assay [1] (n=4) and “significantly declined” in assay [1] (n=4, 0.4 mg/kg). For the same compound, the “wet/dry weight ratio, traumatized skeletal muscle” value in assay [1] (HOE140 0.4 mg/kg i.v., n=4, vehicle 4.491±0.112) came out at 4.247±0.176. In assay [1] (HOE140 0.4 mg/kg i.v., n=4, vehicle 4.528±0.112), the “wet/dry weight ratio, intestine” value was 4.399±0.090.
In the case of `NC[C@H]1CC[C@H](C(=O)O)CC1` [TXA, tranexamic acid], in assay [2] (TXA 10 mg/kg just after trauma and 45 min after the end of trauma), the “fluid movement into the lung (ALI, lung wet/dry weight ratio)” value is “reduces fluid movement into the lung”. Moreover, in assay [2] (setting [3]), the “level of C5a in the lung as compared with FWB” value is “significantly reduced”; the “level of neutrophil elastase in the lung as compared with FWB” value is “significantly reduced”; the “platelet and leukocyte infiltration in the lung as compared with FWB” value is “significantly reduced”. In addition, in assay [2] (current study), the circulatory plasmin activity result is reported as “not significantly changed”. For the same compound, in assay [2] (setting [4]), the “prothrombin time (PT) at 30 min after trauma” value is “delayed elevation of prothrombin time” and the “prothrombin time (PT) at 120 min after trauma” value was “significantly elevated”.
